The record followed here is US20130345205A1, “SUBSTITUTED BICYCLIC ARALKYL PYRAZOLE LACTAM ANALOGS AS ALLOSTERIC MODULATORS OF MGLUR5 RECEPTORS” (Vanderbilt University, priority 2012, published 2013).

The target of series [1] is human mGluR5 (Homo sapiens, UniProt P41594). The experiment in a line: Cell-based functional Ca2+ mobilization assay (FDSS), potentiation of glutamate EC20 response. Particulars: H10H cell-line (HEK, recombinant human mGluR5); for Emax: glutamate EC20, maximum average response at a single concentration, percent of maximal glutamate response; for EC50: positive allosteric modulation in presence of glutamate EC20, concentration in mol/L. From the text:
Human mGluR5a cDNA in pCMV6-XL6 mammalian expression plasmid was purchased from OriGene Technologies, Inc. (catalogue number SC326357) and subcloned into pcDNA3.1(−). Human embryonic kidney (HEK) 293A cells were then transfected with human mGluR5a pcDNA3.1(−) using LipofectAmine2000 (Invitrogen) and monoclones were selected and tested for functional response using a Ca^2+ mobilization assay. Monoclones were named for the species (“H” for human) plus the location on the plate (e.g. “10H”).
HEK cells transfected with the human mGluR5a receptor (H10H or H12H cell line) were plated at 15,000 cells/well in clear-bottomed poly-D-lysine-coated assay plates (BD Falcon) in glutamate-glutamine-free growth medium and incubated overnight at 37° C. and 5% CO2. Cell-lines used were either the H10H or H12H cell-lines expressing the human mGluR5 receptor. The following day, the growth medium was removed and the cells were washed with assay buffer containing 1× Hank's balanced salt solution (Invitrogen, Carlsbad, Calif.), 20 mM HEPES, 2.5 mM probenecid, pH 7.4 and left with 20 μL of this reagent. Following this step, the cells were loaded with calcium indicator dye, fluo-4 AM, to a final concentration of 2 μM and incubated for 40-45 min at 37° C. The dye solution was removed and replaced with assay buffer. Cell plates were held for 10-15 min at room temperature and were then loaded into the Functional Drug Screening System 6000 (FDSS 6000, Hamamatsu, Japan).
After establishment of a fluorescence baseline for about 3 seconds, the compounds of the present invention were added to the cells, and the response in cells was measured. 2.3 minutes later an EC20 concentration of the mGluR5 receptor agonist glutamate was added to the cells, and the response of the cells was measured for about 1.7 minutes. All test compounds were dissolved and diluted to a concentration of 10 mM in 100% DMSO and then serially diluted into assay buffer for a 2× stock solution in 0.6% DMSO; stock compounds were then added to the assay for a final DMSO concentration of 0.3% after the first addition to the assay well. Calcium fluorescence measures were recorded as fold over basal fluorescence; raw data was then normalized to the maximal response to glutamate. Potentiation of the agonist response of the mGluR5 receptor in the present invention was observed as an increase in response to submaximal concentrations of glutamate in the presence of compound compared to the response to glutamate in the absence of compound.
The concentration-response curves of compounds of the present invention, obtained in the presence of EC20 of mGluR5 receptor agonist glutamate to determine positive allosteric modulation, were generated using Microsoft Excel with IDBS XLFit add-ins. The raw data file containing all time points was used as the data source in the analysis template. This was saved by the FDSS as a tab-delimited text file. Data were normalized using a static ratio function (F/F0) for each measurement of the total 350 values per well divided by each well's initial value. Data was then reduced as to peak amplitudes (Max-Initial Min) using a time range that starts approximately 1 second after the glutamate EC20 addition and continues for approximately 40 seconds. This is sufficient time to capture the peak amplitude of the cellular Calcium response. Individual amplitudes were expressed as % EMax by multiplying each amplitude by 100 and then dividing the product by the mean of the amplitudes derived from the glutamate ECMax-treated wells. pEC50 values for test compounds were generated by fitting the normalized values versus the log of the test compound concentration (in mol/L) using a 4 parameter logistic equation where none of the parameters were fixed. Each of the three values collected at each concentration of test compound were weighted evenly. Individual values falling outside the 95% prediction limits of the curve fit were automatically excluded from the fit. […]
For orientation: Calcium assays in cells follow changes in intracellular calcium, usually with a dye or a luminescent sensor.

The structures appear in SMILES notation.

human mGluR5, sequence (P41594 21-1180 isoform P41594-2 limits assumed): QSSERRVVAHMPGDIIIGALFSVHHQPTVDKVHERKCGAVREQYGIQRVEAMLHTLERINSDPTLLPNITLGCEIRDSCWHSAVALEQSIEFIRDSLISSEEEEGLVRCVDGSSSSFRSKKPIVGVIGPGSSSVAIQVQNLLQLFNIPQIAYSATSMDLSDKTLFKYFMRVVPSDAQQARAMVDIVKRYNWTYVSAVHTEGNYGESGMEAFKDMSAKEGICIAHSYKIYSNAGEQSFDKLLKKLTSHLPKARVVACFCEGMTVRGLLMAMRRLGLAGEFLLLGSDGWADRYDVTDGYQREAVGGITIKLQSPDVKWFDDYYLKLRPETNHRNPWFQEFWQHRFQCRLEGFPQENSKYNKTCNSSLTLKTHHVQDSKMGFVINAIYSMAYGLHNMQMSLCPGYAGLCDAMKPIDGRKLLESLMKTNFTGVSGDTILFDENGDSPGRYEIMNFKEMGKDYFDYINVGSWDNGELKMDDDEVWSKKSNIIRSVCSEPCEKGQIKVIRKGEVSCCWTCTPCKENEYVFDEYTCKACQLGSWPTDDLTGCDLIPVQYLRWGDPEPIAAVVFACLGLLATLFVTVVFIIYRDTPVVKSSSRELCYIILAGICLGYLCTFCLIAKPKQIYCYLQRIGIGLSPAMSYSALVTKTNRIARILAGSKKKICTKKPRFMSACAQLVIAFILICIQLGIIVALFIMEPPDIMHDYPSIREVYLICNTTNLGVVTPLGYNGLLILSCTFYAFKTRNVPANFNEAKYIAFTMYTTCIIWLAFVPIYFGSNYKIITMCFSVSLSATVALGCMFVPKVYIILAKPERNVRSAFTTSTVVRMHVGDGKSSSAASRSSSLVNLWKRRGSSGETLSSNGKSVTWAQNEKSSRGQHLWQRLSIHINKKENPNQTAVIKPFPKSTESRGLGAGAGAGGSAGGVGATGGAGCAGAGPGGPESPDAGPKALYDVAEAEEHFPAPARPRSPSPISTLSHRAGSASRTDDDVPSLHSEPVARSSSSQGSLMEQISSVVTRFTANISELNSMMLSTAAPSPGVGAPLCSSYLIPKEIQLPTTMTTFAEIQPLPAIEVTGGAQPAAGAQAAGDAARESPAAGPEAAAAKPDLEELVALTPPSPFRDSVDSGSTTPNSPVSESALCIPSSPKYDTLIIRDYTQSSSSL

For the molecule `O=C1c2cc(COc3cccc(F)c3)nn2CCN1Cc1ccccc1` [Example B11, 5-benzyl-2-[(3-fluorophenoxy)methyl]-6,7-dihydropyrazolo[1,5-a]pyrazin-4(5H)-one], the melting point was found to be 104.9 °C. Further, in series [1], the maximum response (Emax) came to 63% and the EC50 was 46.8 nM.

The molecule `COc1cncc(CN2CCn3nc(COc4ccccc4)cc3C2=O)n1` [Example B71] yielded a melting point of 96 °C. In addition, in series [1], the Emax worked out at 73% and the EC50 was 525 nM.

In turn, `Cc1nc(CN2CCn3nc(COc4ccccc4)cc3C2=O)cs1` [Example B97] had a melting point of 121.9 °C. In series [1], the Emax was found to be 65% and the EC50 is 417 nM.

`O=C1c2cc(COc3ccccc3)nn2CCN1Cc1cccc2cccnc12` [Example B93] showed a melting point of 131.3 °C. Further, in series [1], the Emax was found to be 73% and the EC50 is 25.7 nM.

In turn, `COc1c(Cl)cccc1CN1CCn2nc(COc3ccccc3)cc2C1=O` [Example B68] returned a melting point of 116 °C. Also, in series [1], the Emax worked out at 65.5% and the EC50 was 17.8 nM.

The molecule `CN(C)c1cccc(CN2CCn3nc(COc4ccccc4)cc3C2=O)n1` [Example B74] showed a melting point of 71.8 °C. In addition, in series [1], the Emax turned out to be 69% and the EC50 is 95.5 nM.

Molecule `Cc1nc(CN2CCn3nc(COc4ccccc4)cc3C2=O)ccc1F` [Example B78] returned a melting point of 114.2 °C. For the same molecule, in series [1], the Emax amounted to 70% and the EC50 was 295 nM.

`COc1ccc(CN2CCn3nc(COc4cccc(C)n4)cc3C2=O)cc1` [Example B29] gave a melting point of 91.2 °C. Moreover, in series [1], the Emax is 37% and the EC50 is more than 10000 nM.

As for `O=C1c2cc(COc3ccccc3)nn2CCN1Cc1nc2ccccc2o1` [Example B92], the melting point was found to be 145.4 °C. In series [1], the Emax turned out to be 65% and the EC50 was 282 nM.

`Cc1cncc(CN2CCn3nc(COc4ccccc4)cc3C2=O)n1` [Example B77] returned a melting point of 120.4 °C. In addition, in series [1], the Emax worked out at 66% and the EC50 is 2290 nM.

On to `COc1ccc(CN2CCn3nc(COc4ccccn4)cc3C2=O)cc1` [Example B101], for which the melting point worked out at 95 °C. In series [1], the maximal effect (Emax) is 68% and the EC50 was 1290 nM.

With `COc1cccc(CN2CCn3nc(COc4ccccc4)cc3C2=O)n1` [Example B1, 5-[(6-methoxypyridin-2-yl)methyl]-2-(phenoxymethyl)-6,7-dihydropyrazolo[1,5-a]pyrazin-4(5H)-one], the melting point is 97.7 °C. For the same molecule, in series [1], the maximal effect (Emax) turned out to be 68% and the EC50 was 91.2 nM.

With `COc1cccc(CN2CCn3nc(COc4ccccc4)cc3C2=O)c1` [Example B36], the melting point came to 82.5 °C. Further, in series [1], the Emax amounted to 65% and the EC50 is 107 nM.

For `COc1ccc(CN2CCn3nc(COc4cc(C)ccn4)cc3C2=O)cc1` [Example B30], the melting point was more than 300 °C. Further, in series [1], the Emax turned out to be 61% and the 50% effective concentration (EC50) is more than 10000 nM.

`Cn1c(CN2CCn3nc(COc4ccccc4)cc3C2=O)nc2ccccc21` [Example B98] yielded a melting point of more than 300 °C. Besides, in series [1], the Emax was found to be 72% and the EC50 was more than 10000 nM.

Regarding `N#Cc1cccc(CN2CCn3nc(COc4ccccc4)cc3C2=O)c1` [Example B72], the melting point was found to be 117.4 °C. In series [1], the Emax came out at 81% and the EC50 was 229 nM.

`O=C1c2cc(COc3ccccc3F)nn2CCN1Cc1ccccc1` [Example B69] gave a melting point of 104.2 °C. In series [1], the maximum response (Emax) was found to be 69% and the EC50 is 209 nM.

The molecule `O=C1c2cc(COc3ccccc3)nn2CCN1Cc1ncccc1F` [Example B83] showed a melting point of 117.2 °C. In series [1], the Emax was 77% and the EC50 is 417 nM.

For the molecule `O=C1c2cc(COc3ccccn3)nn2CCN1Cc1ccccc1` [Example B9, 5-benzyl-2-[(pyridin-2-yloxy)methyl]-6,7-dihydropyrazolo[1,5-a]pyrazin-4(5H)-one], the melting point was determined as 124.7 °C. Moreover, in series [1], the maximum response (Emax) was 62% and the EC50 was 347 nM.

In turn, `O=C1c2cc(COc3ccccc3)nn2CCN1Cc1nc2ccccc2s1` [Example B91] had a melting point of 105.8 °C. Moreover, in series [1], the Emax was found to be 69% and the EC50 was 67.6 nM.

As for `O=C1c2cc(COc3ccccc3)nn2CCN1Cc1ccc(F)cn1` [Example B5, 5-[(5-fluoropyridin-2-yl)methyl]-2-(phenoxymethyl)-6,7-dihydropyrazolo[1,5-a]pyrazin-4(5H)-one], the melting point is 126.5 °C. In series [1], the Emax was determined as 69% and the EC50 is 550 nM.

Molecule `O=C1c2cc(COc3ccccc3)nn2CCN1Cc1ccc(F)c(F)c1` [Example B21] had a melting point of 133.2 °C. In series [1], the Emax came to 68% and the EC50 was 77.6 nM.

Molecule `O=C1c2cc(COc3ccccc3)nn2CCCN1Cc1ccccc1` [Example B2, 5-benzyl-2-(phenoxymethyl)-5,6,7,8-tetrahydro-4H-pyrazolo[1,5-a][1,4]diazepin-4-one] came in with a melting point of 94.6 °C. For the same molecule, in series [1], the Emax is 64% and the EC50 is 87.1 nM.

`CC1CN([C@H](C)c2ccccc2)C(=O)c2cc(COc3ccccc3)nn21` (single isomer, unassigned) [Example B4, (7*S)-7-methyl-2-(phenoxymethyl)-5-[(1R)-1-phenylethyl]-6,7-dihydropyrazolo[1,5-a]pyrazin-4(5H)-one] had a melting point of 132 °C. In series [1], the Emax was 68.5% and the EC50 was 55 nM.

`O=C1c2cc(COc3ccccc3)nn2CCN1Cc1ccc(C(F)(F)F)nc1` [Example B95]: the melting point was found to be 115.4 °C. Moreover, in series [1], the maximum response (Emax) was 75% and the EC50 is 372 nM.

In the case of `Cc1ccc(CN2CCn3nc(COc4ccccc4)cc3C2=O)cc1` [Example B65], the melting point came to 164.9 °C. Further, in series [1], the Emax was determined as 75% and the EC50 is 145 nM.

In turn, `Cc1cccc(CN2CCn3nc(COc4ccccc4)cc3C2=O)c1` [Example B64] had a melting point of 95.3 °C. Besides, in series [1], the Emax amounted to 61% and the EC50 was 47.9 nM.

`Cc1cccc(CN2CCn3nc(COc4ccc(F)cc4)cc3C2=O)n1` [Example B85]: the melting point came to 147.4 °C. In addition, in series [1], the Emax was determined as 69.5% and the EC50 is 447 nM.

Molecule `O=C1c2cc(COc3ccccc3)nn2CCN1Cc1cc(F)ccc1F` [Example B24] came in with a melting point of 113.6 °C. In series [1], the Emax is 71% and the EC50 is 120 nM.

In turn, `COc1cccc(F)c1CN1CCn2nc(COc3ccccc3)cc2C1=O` [Example B67] showed a melting point of 87.6 °C. Further, in series [1], the Emax worked out at 68% and the 50% effective concentration (EC50) is 195 nM.

The molecule `O=C1c2cc(COc3cccc(F)c3)nn2CCN1Cc1ncccc1F` [Example B104] came in with a melting point of more than 300 °C. Further, in series [1], the Emax is 65% and the EC50 was 550 nM.

On to `O=C1c2cc(COc3ccccc3)nn2CCN1Cc1ccccc1F` [Example B19], for which the melting point was 110.6 °C. Moreover, in series [1], the Emax was 69.5% and the EC50 is 43.7 nM.

In the case of `O=C1c2cc(COc3ccccc3)nn2CCN1Cc1ccccc1Cl` [Example B46], the melting point came to 111.2 °C. Moreover, in series [1], the Emax turned out to be 75% and the EC50 was 26.3 nM.

Usually melting point stands for the temperature of the solid-liquid transition. What is called Emax is the maximal effect, on the per cent scale that the assay sets. The EC50 is the concentration that produces a half-maximal response.
